Experiments:
melanoma B 16 = assay: Test for melanoma B 16; assay type: in vivo, BDF1 hybrid mice; details: D1-D9; for Number of survivors: day D60; for T/C %: survival time
Procedure, shortened: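 BDF1 mice inoculated i.p. with 0.5 ml B16 melanoma homogenate (1 g tumour in 10 ml physiological serum); compound given i.p. daily D1–D9, Cis-platine positive control under same conditions. Surviving animals counted on D60; activity as survival increase vs untreated controls (T/C), toxicity if T/C ≤85%.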

leukemia P 388 = assay: Test of leukemia P 388; IP/IP, D1-5; assay type: in vivo, CDF1 hybrid mice; details: D1-D5; for Number of survivors: day D30; for T/C %: survival time
Procedure, shortened: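 CDF1 hybrid mice received 10^6 P 388 cells intraperitoneally, then compound in distilled water by intraperitoneal route daily D1-D5, 10 mice per group, 5-fluorouracil as positive control. Activity judged as T/C survival time versus untreated controls, survivors counted at D30; T/C ≤85% or day 5 minus day 1 weight change ≤ −4 g counted as toxic.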

in vivo [1] = assay: in vivo; parameters: species or system female CDF1 hybrid mice; details: mouse, iv
Method: In addition the administration, to healthy female CDF1 hybrid mice, in a single injection by intravenous route with a perfusor, lasting 4 minutes, of the compounds under test in solution in physiological serum at a rate of 0.1 ml of solution per 10 g weight of the animals has enabled it to be established that the compounds are also well tolerated at a high dosage in these conditions.

in vivo [2] = assay: in vivo; parameters: species or system CDF1 hybrid mice; details: mouse, ip, 50 mg/kg
Source text: The compounds of the invention benefit from a good tolerance and a weak toxicity.
Thus the administration, to healthy CDF1 hybrid mice, in a single injection by intraperitoneal route, of the compounds under test, has enabled it to be established that the product is perfectly tolerated at a high dosage since the survival rate of the animals of the experiment was 100 out of 100 thirteen days after administration.

leukemia P388 = assay: Test for leukemia P388, IP/IP, D1; assay type: in vivo, CDF1 hybrid mice; details: for Number of survivors: day D30; for T/C %: survival time
Method: The antitumour activity was tested in vivo on various tumours inoculated in various ways according to the following general protocol:
All the male or female mice are inoculated on day D0 with a known quantity of viable tumour cells for ascitic tumours or with a known tumour fragment for solid tumours.
They are then distributed into various groups. Each group, corresponding to the animals treated by the product under test, is made up of 10 mice. The product under test is dissolved in distilled water and it is administered n times (Dx-Dy), n, y, and x varying according to the protocol chosen, at the rate of 0.1 ml of solution per 10 g by weight of mice treated and at specific doses for each protocol.
The "negative control" group, corresponding to the animals which are not treated by the product, contains 2√N animals, N being equal to or greater than the total number of mice treated by the product in the same experiment.
Finally, the tests can also be carried out at the same time as the study of a group called "positive control", of ten animals, which is treated by a molecule, known for its antitumour activity and which can vary according to the protocol chosen, in the same conditions as the groups treated by the product under test.
The antitumour activity is evaluated, in the case of ascitic tumours, by considering the increase in the survival time of the animals treated in comparison to that of the animals in the "negative control" group, according to the formula: [formula]
Also, a product is considered as toxic at the dose studied when this T/C value is equal to or less than 85%. In addition, a product is also considered as toxic at the dose studied when the weight variation, expressed in grams and calculated by the formula: […]
The tests are carried out with CDF1 hybrid mice inoculated by intraperitoneal route with 10^6 leukemia cells from the P 388 line. The compound under test is administered for 5 successive days (D1-D5) by intraperitoneal route. The positive control for the test is 5-fluorouracile which is administered in the same conditions. The number of surviving animals is evaluated on day D30.
(b) Test for Leukemia P388, IP/IP, D1 (GERAN et al. Cancer chemother., 1972, 2, 07-57).
The test is carried out according to the preceding protocol, the compound under test being administered only on day D1.

CCN(CC)CCCNc1ncc(C)c2[nH]c3ccc(O)cc3c12 [Derivative No. 7, 1-(diethylaminopropylamino)-8-hydroxy-4-methyl-5H-pyrido[4,3-b]indole]
Median day of survival (melanoma B 16; 2.5 mg/kg IP): 34 days
Variation by weight (g) (melanoma B 16; 2.5 mg/kg IP): +3.6 g
Number of survivors (melanoma B 16; 2.5 mg/kg IP): 0/10
T/C % (melanoma B 16; 2.5 mg/kg IP): 124%
Median day of survival (melanoma B 16; 5 mg/kg IP): 48 days
Variation by weight (melanoma B 16; 5 mg/kg IP): -0.1 g
Number of survivors (melanoma B 16; 5 mg/kg IP): 0/10
T/C % (melanoma B 16; 5 mg/kg IP): 174%
Median day of survival (melanoma B 16; 10 mg/kg IP): 56.25 days
Variation by weight (g) (melanoma B 16; 10 mg/kg IP): +1.6 g
Number of survivors (melanoma B 16; 10 mg/kg IP): 4/10
T/C % (melanoma B 16; 10 mg/kg IP): 205%
Median day of survival (melanoma B 16; 20 mg/kg IP): 58 days
Variation by weight (melanoma B 16; 20 mg/kg IP): -0.8 g
Number of survivors (melanoma B 16; 20 mg/kg IP): 5/10
T/C % (melanoma B 16; 20 mg/kg IP): 211%
Median day of survival (melanoma B 16; 30 mg/kg IP): 9.0 days
Variation by weight (melanoma B 16; 30 mg/kg IP): -1.0 g
Number of survivors (melanoma B 16; 30 mg/kg IP): 0/10
T/C % (melanoma B 16; 30 mg/kg IP): 33%
Median day of survival (leukemia P 388; 0.625 mg/kg IP): 14.3 days
Variation by weight (g) (leukemia P 388; 0.625 mg/kg IP): +0.3 g
Number of survivors (leukemia P 388; 0.625 mg/kg IP): 0/10
T/C % (leukemia P 388; 0.625 mg/kg IP): 127%
Median day of survival (leukemia P 388; 1.25 mg/kg IP): 17.25 days
Variation by weight (g) (leukemia P 388; 1.25 mg/kg IP): +0.3 g
Number of survivors (leukemia P 388; 1.25 mg/kg IP): 0/10
T/C % (leukemia P 388; 1.25 mg/kg IP): 153%
Median day of survival (leukemia P 388; 2.5 mg/kg IP): 18.25 days
Variation by weight (g) (leukemia P 388; 2.5 mg/kg IP): +0.1 g
Number of survivors (leukemia P 388; 2.5 mg/kg IP): 0/10
T/C % (leukemia P 388; 2.5 mg/kg IP): 162%
Median day of survival (leukemia P 388; 5 mg/kg IP): 19.25 days
Variation by weight (g) (leukemia P 388; 5 mg/kg IP): +0.3 g
Number of survivors (leukemia P 388; 5 mg/kg IP): 0/10
T/C % (leukemia P 388; 5 mg/kg IP): 170%
Median day of survival (leukemia P 388; 10 mg/kg IP): 20.9 days
Variation by weight (leukemia P 388; 10 mg/kg IP): -0.2 g
Number of survivors (leukemia P 388; 10 mg/kg IP): 0/10
T/C % (leukemia P 388; 10 mg/kg IP): 185%
Median day of survival (leukemia P 388; 15 mg/kg IP): 23.55 days
Variation by weight (g) (leukemia P 388; 15 mg/kg IP): +1.6 g
Number of survivors (leukemia P 388; 15 mg/kg IP): 3/10
T/C % (leukemia P 388; 15 mg/kg IP): 208%
Median day of survival (leukemia P 388; 20 mg/kg IP): 27.0 days
Variation by weight (leukemia P 388; 20 mg/kg IP): -1.1 g
Number of survivors (leukemia P 388; 20 mg/kg IP): 1/10
T/C % (leukemia P 388; 20 mg/kg IP): 238%
Median day of survival (leukemia P 388; 30 mg/kg IP): 9.25 days
Variation by weight (leukemia P 388; 30 mg/kg IP): 0.0 g
Number of survivors (leukemia P 388; 30 mg/kg IP): 0/10
T/C % (leukemia P 388; 30 mg/kg IP): 81%
survival at 192 h (in vivo [1]; 25 mg/kg): 100%
survival at 192 h (in vivo [1]; 30 mg/kg): 100%
survival at 312 h (in vivo [2]): 100%
Median day of survival (leukemia P388; 10 mg/kg IP): 15.1 days
Variation by weight (g) (leukemia P388; 10 mg/kg IP): +1.2 g
Number of survivors (leukemia P388; 10 mg/kg IP): 0/10
T/C % (leukemia P388; 10 mg/kg IP): 129%
Median day of survival (leukemia P388; 20 mg/kg IP): 16.25 days
Variation by weight (g) (leukemia P388; 20 mg/kg IP): +0.2 g
Number of survivors (leukemia P388; 20 mg/kg IP): 0/10
T/C % (leukemia P388; 20 mg/kg IP): 139%
Median day of survival (leukemia P388; 40 mg/kg IP): 15.9 days
Variation by weight (leukemia P388; 40 mg/kg IP): -0.2 g
Number of survivors (leukemia P388; 40 mg/kg IP): 0/10
T/C % (leukemia P388; 40 mg/kg IP): 136%
Median day of survival (leukemia P388; 80 mg/kg IP): 2.3 days
Variation by weight (leukemia P388; 80 mg/kg IP): -1.7 g
Number of survivors (leukemia P388; 80 mg/kg IP): 0/10
T/C % (leukemia P388; 80 mg/kg IP): 20%

— patent US4835160A, “Derivatives of pyridoindole, having anti-tumor properties” (Sanofi, priority 1986, dated 1989)
